Holding throughout (type): functional
The test system of assay [1] is Aspergillus fumigatus. The experiment in a line: In vitro antifungal activity against Aspergillus fumigatus TIMM1776; activity expressed as minimum inhibitory concentration.
The subject of assay [2] is Cryptococcus neoformans. The experiment in a line: In vitro antifungal activity against Cryptococcus neoformans ATCC 9011; activity expressed as minimum inhibitory concentration.
Assay [3] has as its system Candida albicans. Kind of assay: In vitro antifungal activity against Candida albicans ATCC 90028; activity expressed as minimum inhibitory concentration.
The test system of assay [4] is Saccharomyces cerevisiae. The experiment in a line: In vitro antifungal activity against Saccharomyces cerevisiae Y9; activity expressed as minimum inhibitory concentration.
Assay [5] relates to Candida albicans. The experiment in a line: In vitro antifungal activity against Candida albicans ATCC 90028.
For assay [6], the system named is Saccharomyces cerevisiae. The experiment in a line: In vitro antifungal activity against Saccharomyces cerevisiae Y9.
Assay [7] has as its system Cryptococcus neoformans. Kind of assay: In vitro antifungal activity against Cryptococcus neoformans ATCC 9011.
The test system of assay [8] is Aspergillus fumigatus. The experiment in a line: In vitro antifungal activity against Aspergillus fumigatus TIMM1776.

As a reminder, the MIC is the lowest concentration that inhibits growth of the organism. A higher MIC goes with a less susceptible organism. Broadly, the IC80 is the point of the concentration-response curve where the effect stands at 80%. Higher therefore signals weaker potency.

The structures appear in SMILES notation. Values after ≈ are worked out from the molar mass of the structure shown. Where only a bound is given, the exact number is not on record here.

Consider `C[C@@H]1[C@H](O)[C@@H](C)/C=C/C=C/C=C/C=C/C=C/C=C/C=C/[C@H](O[C@@H]2O[C@H](C)[C@@H](O)[C@H](N)[C@@H]2O)C[C@@H]2O[C@](O)(C[C@@H](O)C[C@@H](O)[C@H](O)CC[C@@H](O)C[C@@H](O)CC(=O)O[C@H]1C)C[C@H](O)[C@H]2C(=O)O` [AMPHOTERICIN B], for which the minimal inhibitory concentration (MIC) against Aspergillus fumigatus [1] amounted to 1 µg/mL (≈ 1.08 µM); against Cryptococcus neoformans [2], 0.25 µg/mL (≈ 0.271 µM); with Candida albicans [3] it was 0.25 µg/mL (≈ 0.271 µM); against Saccharomyces cerevisiae [4] it was 0.25 µg/mL (≈ 0.271 µM).

On to `C=C1/C=C(\C)[C@H](CC)OC(=O)[C@H](C)C(=O)[C@@](O)(CO)C/C(SC)=C/[C@@H](C)C1`, for which the IC80 in the assay on Candida albicans [5] is 16 µg/mL (≈ 40.3 µM); in the assay on Saccharomyces cerevisiae [6] it was 32 µg/mL (≈ 80.7 µM); in the assay on Cryptococcus neoformans [7], 0.063 µg/mL (≈ 0.159 µM). Moreover, the MIC is over 64 µg/mL against Aspergillus fumigatus [1], 0.5 µg/mL (≈ 1.26 µM) in the assay with Cryptococcus neoformans [2], 64 µg/mL (≈ 161 µM) in the assay with Candida albicans [3] and 64 µg/mL (≈ 161 µM) against Saccharomyces cerevisiae [4].

Consider `C=C1/C=C(\C)[C@H](CC)OC(=O)[C@H](C)C(=O)[C@@](O)(CO)C/C=C/[C@@H](C)C1`, for which the MIC against Aspergillus fumigatus [1], in the assay with Cryptococcus neoformans [2] and in the assay on Candida albicans [3] was over 64 µg/mL each time.

With `C=C1/C=C(\C)[C@H](CC)OC(=O)[C@H](C)C(=O)[C@@](O)(CO)C/C(OCC(F)(F)F)=C/[C@@H](C)C1`, the minimum inhibitory concentration (MIC) against Aspergillus fumigatus [1] is 64 µg/mL (≈ 143 µM); against Cryptococcus neoformans [2], 32 µg/mL (≈ 71.4 µM); with Candida albicans [3] it was over 64 µg/mL.

With `C=C1/C=C(\C)[C@H](CC)OC(=O)[C@H](C)C(=O)[C@@](O)(CO)C/C(OC)=C/[C@@H](C)C1`, the IC80 in the assay with Candida albicans [5] is 1 µg/mL (≈ 2.63 µM); in the assay with Saccharomyces cerevisiae [6], 0.5 µg/mL (≈ 1.31 µM); in the assay with Cryptococcus neoformans [7], under 0.031 µg/mL. Besides, the minimum inhibitory concentration (MIC) with Aspergillus fumigatus [1] was over 64 µg/mL; against Cryptococcus neoformans [2], 0.063 µg/mL (≈ 0.166 µM); in the assay on Candida albicans [3], 4 µg/mL (≈ 10.5 µM); with Saccharomyces cerevisiae [4], 1 µg/mL (≈ 2.63 µM).

For the compound `C=C1/C=C(\C)[C@H](CC)OC(=O)[C@H](C)C(=O)[C@@](O)(CO)C/C(C)=C/[C@@H](C)C1`, the MIC against Aspergillus fumigatus [1], with Cryptococcus neoformans [2], in the assay on Candida albicans [3] and against Saccharomyces cerevisiae [4] was over 64 µg/mL throughout. The concentration for an effect of 80% (IC80) in the assay on Cryptococcus neoformans [7] turned out to be 32 µg/mL (≈ 87.8 µM).

Turning to `C=C1/C=C(\C)[C@H](CC)OC(=O)[C@@H](C)C(=O)[C@@](O)(CO)C/C(OC)=C/[C@@H](C)C1`, the MIC in the assay with Aspergillus fumigatus [1], in the assay on Cryptococcus neoformans [2], against Candida albicans [3] and against Saccharomyces cerevisiae [4] was over 64 µg/mL in each case.

In the case of `C=C1/C=C(\C)[C@H](CC)OC(=O)[C@H](C)C(=O)[C@@](O)(CO)[C@H](OC)/C=C/[C@@H](C)C1`, the minimal inhibitory concentration (MIC) with Aspergillus fumigatus [1], in the assay with Cryptococcus neoformans [2] and in the assay on Candida albicans [3] was over 64 µg/mL in each case.

As to `C=C1/C=C(\C)[C@H](CC)OC(=O)[C@H](C)C(=O)[C@@](O)(CO)C/C(Cl)=C/[C@@H](C)C1`, the IC80 in the assay on Candida albicans [5] amounted to 64 µg/mL (≈ 166 µM); with Cryptococcus neoformans [7], 0.15 µg/mL (≈ 0.39 µM). For the same compound, the MIC is over 64 µg/mL with Aspergillus fumigatus [1], 16 µg/mL (≈ 41.6 µM) with Cryptococcus neoformans [2] and over 64 µg/mL with Candida albicans [3].

Take `OC(Cn1cncn1)(Cn1cncn1)c1ccc(F)cc1F` [FLUCONAZOLE]: the IC80 in the assay with Candida albicans [5] was 0.5 µg/mL (≈ 1.63 µM); in the assay on Saccharomyces cerevisiae [6], 8 µg/mL (≈ 26.1 µM); in the assay with Cryptococcus neoformans [7], 8 µg/mL (≈ 26.1 µM); with Aspergillus fumigatus [8], over 64 µg/mL.

As for `C=C1/C=C(\C)[C@H](CC)OC(=O)[C@H](C)C(=O)[C@@](O)(CO)[C@@H](OC)/C=C/[C@@H](C)C1`, the MIC in the assay with Aspergillus fumigatus [1], against Cryptococcus neoformans [2] and with Candida albicans [3] was over 64 µg/mL each time.

The values are drawn from ChEMBL document CHEMBL1137070, “Novel galbonolide derivatives as IPC synthase inhibitors: design, synthesis and in vitro antifungal activities” (2004).
